Laboratory results from ChEMBL document CHEMBL1212738, “Phenotypic and genotypic characterization of Enterobacteriaceae with decreased susceptibility to carbapenems: results from large hospital-based surveillance studies in China” (2010).
In brackets after ≈: the same amount, converted by molar mass.

What was measured:
Enterobacter cloacae [1] = assay: Antimicrobial activity against carbapenem-resistant Enterobacter cloacae GX24 deficient in TEM-1, DHA-1, aac(6')-Ib, ompC by CLSI method; assay type: functional
Escherichia coli [2] = assay: Antimicrobial activity against carbapenem-resistant Escherichia coli PU43 deficient in TEM-1, CTX-M-14, aac(6')-Ib, ompC/F by CLSI method; assay type: functional
Escherichia coli [3] = assay: Antimicrobial activity against carbapenem-resistant Escherichia coli ZJ86 expressing KPC-2, TEM-1 with ompC loss by CLSI method
Klebsiella pneumoniae [4] = assay: Antimicrobial activity against carbapenem-resistant Klebsiella pneumoniae XJ81 deficient in TEM-1, SHV-12, DHA-1, aac(6')-Ib, ompK35/36 by CLSI method; assay type: functional
Klebsiella pneumoniae [5] = assay: Antimicrobial activity against carbapenem-resistant Klebsiella pneumoniae GZ66 deficient in SHV-11, DHA-1, ompK35/36 by CLSI method; assay type: functional
Escherichia coli [6] = assay: Antimicrobial activity against Escherichia coli C600 by CLSI method; assay type: functional
Klebsiella aerogenes [7] = assay: Antimicrobial activity against carbapenem-resistant Enterobacter aerogenes PU41 deficient in CTX-M-14, DHA-1, qnrS1, ompC DEc, ompF by CLSI method; assay type: functional
Klebsiella pneumoniae [8] = assay: Antimicrobial activity against carbapenem-resistant Klebsiella pneumoniae PU8 deficient in SHV-11, DHA-1, aac(6')-Ib-cr, ompK35/36 by CLSI method; assay type: functional
Escherichia coli [9] = assay: Antimicrobial activity against Escherichia coli C600 transconjugant WH77T expressing IMP-4, TEM-1, CTX-M-3, qnrS1 by CLSI method
Klebsiella pneumoniae [10] = assay: Antimicrobial activity against carbapenem-resistant Klebsiella pneumoniae ZJ18 deficient in KPC-2, SHV-28, DHA-1, ompK35 by CLSI method; assay type: functional
Klebsiella pneumoniae [11] = assay: Antimicrobial activity against carbapenem-resistant Klebsiella pneumoniae PU5 deficient in SHV-12, DHA-1, aac(6')-Ib-cr, ompK35/36 by CLSI method; assay type: functional
Escherichia coli [12] = assay: Antimicrobial activity against Escherichia coli ZJ86T expressing KPC-2 by CLSI method; assay type: functional
Escherichia coli [13] = assay: Antimicrobial activity against Escherichia coli ZJ87 expressing KPC-2, TEM-1, ompC by CLSI method; assay type: functional
Escherichia coli [14] = assay: Antimicrobial activity against Escherichia coli C600 transconjugant GZ66T expressing SHV-11, DHA-1 by CLSI method
Klebsiella pneumoniae [15] = assay: Antimicrobial activity against Klebsiella pneumoniae FZ49T expressing IMP-8, TEM-1, CTX-M-14, qnrB2, aac(6')-Ib by CLSI method; assay type: functional
Klebsiella pneumoniae [16] = assay: Antimicrobial activity against Klebsiella pneumoniae PU104T expressing TEM-1, CTX-M-15 by CLSI method; assay type: functional
Klebsiella pneumoniae [17] = assay: Antimicrobial activity against Klebsiella pneumoniae ZJ70T expressing KPC-2 by CLSI method; assay type: functional
Klebsiella aerogenes [18] = assay: Antimicrobial activity against Enterobacter aerogenes PU41T expressing CTX-M-14, DHA-1, qnrS1 by CLSI method; assay type: functional
Klebsiella pneumoniae [19] = assay: Antimicrobial activity against Klebsiella pneumoniae ZJ18T expressing KPC-2, DHA-1 by CLSI method; assay type: functional
Klebsiella pneumoniae [20] = assay: Antimicrobial activity against carbapenem-resistant Klebsiella pneumoniae SZ61 deficient in TEM-1, SHV-1a, CMY-2, ompK35/36 by CLSI method; assay type: functional
Klebsiella pneumoniae [21] = assay: Antimicrobial activity against carbapenem-resistant Klebsiella pneumoniae CY75 deficient in SHV-11, DHA-1, ompK35/36 by CLSI method; assay type: functional
Enterobacter cloacae [22] = assay: Antimicrobial activity against carbapenem-resistant Enterobacter cloacae NJ91 deficient in CTX-M-14, ompC/F by CLSI method; assay type: functional
Klebsiella pneumoniae [23] = assay: Antimicrobial activity against Klebsiella pneumoniae WH77 expressing IMP-4, TEM-1, SHV-14, CTX-M-3, qnrS1 by CLSI method; assay type: functional
Klebsiella pneumoniae [24] = assay: Antimicrobial activity against carbapenem-resistant Klebsiella pneumoniae GZ83 deficient in SHV-11, CTX-M-14, ompK35/36 by CLSI method; assay type: functional
Escherichia coli [25] = assay: Antimicrobial activity against Escherichia coli PU102T expressing TEM-1, CTX-M-14, CMY-2 by CLSI method; assay type: functional
Klebsiella pneumoniae [26] = assay: Antimicrobial activity against carbapenem-resistant Klebsiella pneumoniae ZJ68 deficient in CTX-M-15, ompK35/36 by CLSI method
Citrobacter freundii [27] = assay: Antimicrobial activity against Citrobacter freundii RJ78 expressing CMY-2, qnrA1, aac(6')-Ib-cr, ompC by CLSI method; assay type: functional
Citrobacter freundii [28] = assay: Antimicrobial activity against Citrobacter freundii SZ63T expressing IMP-4, qnrS1by CLSI method; assay type: functional
Klebsiella pneumoniae [29] = assay: Antimicrobial activity against carbapenem-resistant Klebsiella pneumoniae ZJ69 deficient in SHV-28, ompK35/36 by CLSI method; assay type: functional
Escherichia coli [30] = assay: Antimicrobial activity against carbapenem-resistant Escherichia coli HX74 deficient in TEM-1, CTX-M-14, CTX-M-3, aac(6')-Ibcr, ompC/F by CLSI method; assay type: functional
Klebsiella aerogenes [31] = assay: Antimicrobial activity against carbapenem-resistant Enterobacter aerogenes WH85 deficient in TEM-1, CTX-M-3, ompC/F by CLSI method; assay type: functional
Enterobacter cloacae [32] = assay: Antimicrobial activity against carbapenem-resistant Enterobacter cloacae WH103 deficient in IMP-4, TEM-1, CTX-M-3, qnrS1, ompC by CLSI method; assay type: functional

Compound	MIC (Enterobacter cloacae [1]) [µg/mL]	MIC (Escherichia coli [2]) [µg/mL]	MIC (Escherichia coli [3]) [µg/mL]	MIC (Klebsiella pneumoniae [4]) [µg/mL]	MIC (Klebsiella pneumoniae [5]) [µg/mL]	MIC (Klebsiella aerogenes [7]) [µg/mL]	MIC (Klebsiella pneumoniae [8]) [µg/mL]	MIC (Escherichia coli [9]) [µg/mL]	MIC (Klebsiella pneumoniae [10]) [µg/mL]	MIC (Klebsiella pneumoniae [11]) [µg/mL]	MIC (Escherichia coli [12]) [µg/mL]	MIC (Escherichia coli [13]) [µg/mL]	MIC (Escherichia coli [14]) [µg/mL]	MIC (Klebsiella pneumoniae [15]) [µg/mL]	MIC (Klebsiella pneumoniae [16]) [µg/mL]	MIC (Klebsiella pneumoniae [17]) [µg/mL]	MIC (Klebsiella aerogenes [18]) [µg/mL]	MIC (Klebsiella pneumoniae [19]) [µg/mL]	MIC (Klebsiella pneumoniae [20]) [µg/mL]	MIC (Klebsiella pneumoniae [21]) [µg/mL]	further results
NCC[C@H](O)C(=O)N[C@@H]1C[C@H](N)[C@@H](O[C@H]2O[C@H](CN)[C@@H](O)[C@H](O)[C@H]2O)[C@H](O)[C@H]1O[C@H]1O[C@H](CO)[C@@H](O)[C@H](N)[C@H]1O [AMIKACIN]	> 256	8 (≈ 13.7 µM)	1 (≈ 1.71 µM)	16 (≈ 27.3 µM)	> 256	> 256	8 (≈ 13.7 µM)	1 (≈ 1.71 µM)	> 256	> 256	32 (≈ 54.6 µM)	1 (≈ 1.71 µM)	> 256	> 256	2 (≈ 3.42 µM)	1 (≈ 1.71 µM)	> 256	> 256	> 256	2 (≈ 3.42 µM)	MIC (Escherichia coli [6]): 1 µg/mL (≈ 1.71 µM); MIC (Enterobacter cloacae [22]): > 256 µg/mL; MIC (Klebsiella pneumoniae [23]): 1 µg/mL (≈ 1.71 µM); MIC (Klebsiella pneumoniae [24]): > 256 µg/mL; MIC (Escherichia coli [25]): 1 µg/mL (≈ 1.71 µM); MIC (Klebsiella pneumoniae [26]): > 256 µg/mL; MIC (Citrobacter freundii [27]): 8 µg/mL (≈ 13.7 µM); MIC (Citrobacter freundii [28]): > 256 µg/mL; MIC (Klebsiella pneumoniae [29]): > 256 µg/mL; MIC (Escherichia coli [30]): 8 µg/mL (≈ 13.7 µM); MIC (Klebsiella aerogenes [31]): 1 µg/mL (≈ 1.71 µM); MIC (Enterobacter cloacae [32]): 1 µg/mL (≈ 1.71 µM)
CO/N=C(\C(=O)N[C@@H]1C(=O)N2C(C(=O)O)=C(COC(C)=O)CS[C@H]12)c1csc(N)n1 [CEFOTAXIME]	256 (≈ 562 µM)	> 256	64 (≈ 141 µM)	> 256	128 (≈ 281 µM)	> 256	128 (≈ 281 µM)	256 (≈ 562 µM)	128 (≈ 281 µM)	> 256	32 (≈ 70.3 µM)	64 (≈ 141 µM)	16 (≈ 35.1 µM)	128 (≈ 281 µM)	256 (≈ 562 µM)	64 (≈ 141 µM)	128 (≈ 281 µM)	8 (≈ 17.6 µM)	128 (≈ 281 µM)	> 256	MIC (Escherichia coli [6]): 0.13 µg/mL (≈ 0.285 µM); MIC (Enterobacter cloacae [22]): > 256 µg/mL; MIC (Klebsiella pneumoniae [23]): 256 µg/mL (≈ 562 µM); MIC (Klebsiella pneumoniae [24]): > 256 µg/mL; MIC (Escherichia coli [25]): 256 µg/mL (≈ 562 µM); MIC (Klebsiella pneumoniae [26]): > 256 µg/mL; MIC (Citrobacter freundii [27]): 256 µg/mL (≈ 562 µM); MIC (Citrobacter freundii [28]): 256 µg/mL (≈ 562 µM); MIC (Klebsiella pneumoniae [29]): 64 µg/mL (≈ 141 µM); MIC (Escherichia coli [30]): > 256 µg/mL; MIC (Klebsiella aerogenes [31]): > 256 µg/mL; MIC (Enterobacter cloacae [32]): > 256 µg/mL
C[C@@H](O)[C@H]1C(=O)N2C(C(=O)O)=C(SCCNC=N)C[C@H]12 [IMIPENEM ANHYDROUS]	4 (≈ 13.4 µM)	8 (≈ 26.7 µM)	8 (≈ 26.7 µM)	8 (≈ 26.7 µM)	32 (≈ 107 µM)	32 (≈ 107 µM)	16 (≈ 53.4 µM)	4 (≈ 13.4 µM)	16 (≈ 53.4 µM)	16 (≈ 53.4 µM)	8 (≈ 26.7 µM)	8 (≈ 26.7 µM)	0.5 (≈ 1.67 µM)	4 (≈ 13.4 µM)	0.25 (≈ 0.835 µM)	16 (≈ 53.4 µM)	0.5 (≈ 1.67 µM)	2 (≈ 6.68 µM)	16 (≈ 53.4 µM)	32 (≈ 107 µM)	MIC (Enterobacter cloacae [22]): 16 µg/mL (≈ 53.4 µM); MIC (Klebsiella pneumoniae [23]): 2 µg/mL (≈ 6.68 µM); MIC (Klebsiella pneumoniae [24]): 32 µg/mL (≈ 107 µM); MIC (Klebsiella pneumoniae [26]): 4 µg/mL (≈ 13.4 µM); MIC (Citrobacter freundii [27]): 8 µg/mL (≈ 26.7 µM); MIC (Citrobacter freundii [28]): 4 µg/mL (≈ 13.4 µM); MIC (Klebsiella pneumoniae [29]): 32 µg/mL (≈ 107 µM); MIC (Escherichia coli [30]): 4 µg/mL (≈ 13.4 µM); MIC (Klebsiella aerogenes [31]): 8 µg/mL (≈ 26.7 µM); MIC (Enterobacter cloacae [32]): 8 µg/mL (≈ 26.7 µM)
CN(C)c1cc(NC(=O)CNC(C)(C)C)c(O)c2c1C[C@H]1C[C@H]3[C@H](N(C)C)C(O)=C(C(N)=O)C(=O)[C@@]3(O)C(O)=C1C2=O [TIGECYCLINE]	1 (≈ 1.71 µM)	0.25 (≈ 0.427 µM)	0.25 (≈ 0.427 µM)	0.5 (≈ 0.854 µM)	0.5 (≈ 0.854 µM)	1 (≈ 1.71 µM)	1 (≈ 1.71 µM)	0.06 (≈ 0.102 µM)	1 (≈ 1.71 µM)	0.5 (≈ 0.854 µM)	0.25 (≈ 0.427 µM)	0.25 (≈ 0.427 µM)	0.125 (≈ 0.213 µM)	0.06 (≈ 0.102 µM)	0.25 (≈ 0.427 µM)	0.13 (≈ 0.222 µM)	0.064 (≈ 0.109 µM)	0.06 (≈ 0.102 µM)	4 (≈ 6.83 µM)	1 (≈ 1.71 µM)	MIC (Escherichia coli [6]): 0.06 µg/mL (≈ 0.102 µM); MIC (Enterobacter cloacae [22]): 0.5 µg/mL (≈ 0.854 µM); MIC (Klebsiella pneumoniae [23]): 0.5 µg/mL (≈ 0.854 µM); MIC (Klebsiella pneumoniae [24]): 0.5 µg/mL (≈ 0.854 µM); MIC (Escherichia coli [25]): 0.25 µg/mL (≈ 0.427 µM); MIC (Klebsiella pneumoniae [26]): 0.125 µg/mL (≈ 0.213 µM); MIC (Citrobacter freundii [27]): 1 µg/mL (≈ 1.71 µM); MIC (Citrobacter freundii [28]): 0.13 µg/mL (≈ 0.222 µM); MIC (Klebsiella pneumoniae [29]): 0.5 µg/mL (≈ 0.854 µM); MIC (Escherichia coli [30]): 0.064 µg/mL (≈ 0.109 µM); MIC (Klebsiella aerogenes [31]): 0.064 µg/mL (≈ 0.109 µM); MIC (Enterobacter cloacae [32]): 1 µg/mL (≈ 1.71 µM)
